Assay [1] addresses T1, 3-hydroxy-3-methylglutaryl coenzyme A (HMG-CoA) reductase (Rattus norvegicus, UniProt P51639).
T1 construct: from tissue; host or cells: liver microsomes of Sprague-Dawley rats (tissue and species from own knowledge of the cited documents)
T1 sequence (P51639 1-887): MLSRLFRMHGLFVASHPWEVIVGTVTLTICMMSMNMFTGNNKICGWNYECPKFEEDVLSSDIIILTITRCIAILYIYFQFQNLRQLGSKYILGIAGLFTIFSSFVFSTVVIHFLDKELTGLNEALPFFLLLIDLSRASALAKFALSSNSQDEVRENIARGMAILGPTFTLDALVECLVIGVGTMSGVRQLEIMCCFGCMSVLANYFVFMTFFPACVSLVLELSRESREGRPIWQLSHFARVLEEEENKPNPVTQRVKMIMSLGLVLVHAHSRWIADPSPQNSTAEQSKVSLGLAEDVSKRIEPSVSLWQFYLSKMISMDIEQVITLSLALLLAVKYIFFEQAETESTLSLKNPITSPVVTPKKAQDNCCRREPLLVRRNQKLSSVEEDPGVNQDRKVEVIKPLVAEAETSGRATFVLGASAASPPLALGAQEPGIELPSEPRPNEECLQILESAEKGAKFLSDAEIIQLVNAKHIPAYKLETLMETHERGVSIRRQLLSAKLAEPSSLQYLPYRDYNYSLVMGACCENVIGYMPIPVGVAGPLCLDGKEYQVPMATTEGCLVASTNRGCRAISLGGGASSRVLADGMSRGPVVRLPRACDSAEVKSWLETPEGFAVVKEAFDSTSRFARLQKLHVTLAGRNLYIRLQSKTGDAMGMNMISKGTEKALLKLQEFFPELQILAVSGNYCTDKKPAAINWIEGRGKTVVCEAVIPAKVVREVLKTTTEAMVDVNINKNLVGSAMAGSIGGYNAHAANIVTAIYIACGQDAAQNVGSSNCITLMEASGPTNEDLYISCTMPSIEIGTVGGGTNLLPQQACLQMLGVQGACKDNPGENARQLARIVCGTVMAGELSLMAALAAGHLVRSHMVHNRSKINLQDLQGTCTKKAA
Briefly: Test A. In Vitro Microsomal Assay of HMG-CoA Reductase Inhibition. It is filed as biochemical. Particulars: test substance 0.001-2,000 μmolar, read-out: IC50 (50% inhibition of HMG-CoA reductase activity). As to the method: Test A. In Vitro Microsomal Assay of HMG-CoA Reductase Inhibition:
This test is carried out precisely as described in column 53 of U.S. Pat. No. 4,613,610 and on page 30 of World (PCT) Published patent application No. 84/02131, both of which are hereby incorporated by reference as if set forth herein in their entirety. The concentration of the test substance (compound of Formula I) in the assay system is 0.001-2,000 μmolar. The obtained IC50 is the concentration of the test substance in the assay system observed or calculated to produce a 50% inhibition of HMG-CoA reductase activity.

Assay [2] concerns 3β-hydroxysterol synthesis. Briefly: Test B. In Vivo Cholesterol Biosynthesis Inhibition Test. Conditions: Rattus norvegicus, po, rats, orally administered, 0.1-200 mg/kg. body weight, read-out: ED50 (50% inhibition of 3β-hydroxysterol synthesis).
Procedure: Test B. In Vivo Cholesterol Biosynthesis Inhibition Test:
In this test the rats are orally administered the test substance (compound of Formula I) at a dose of 0.1-200 mg/kg. body weight. The obtained ED50 is the dose of the test substance observed or calculated to produce a 50% inhibition of 3β-hydroxysterol synthesis.

Usually IC50 stands for the concentration at which inhibition is half-maximal. Consider `Cc1nn(C)c2nc(C(C)C)c(/C=C/[C@@H](O)C[C@@H](O)CC(=O)O)c(-c3ccc(F)cc3)c12` [Example 2, Sodium (3R,5S)-(E)-3,5-dihydroxy-7-[1',3'-dimethyl-4'-(4"-fluorophenyl)-6'-(1"-methylethyl)-1H-pyrazolo[3,4-b]pyrid-5'-yl]hept-6-enoate], for which, in assay [1], the IC50 was 10 nM.

As a reminder, the ED50 is the midpoint of the dose-response relation. As to `CC[C@H](C)C(=O)O[C@H]1C[C@@H](C)C=C2C=C[C@H](C)[C@H](CC[C@@H]3C[C@@H](O)CC(=O)O3)[C@H]21` [Mevinolin], the ED50 in assay [2] turned out to be 0.38 mg/kg.

With `CC[C@H](C)C(=O)O[C@H]1CCC=C2C=C[C@H](C)[C@H](CC[C@@H]3C[C@@H](O)CC(=O)O3)[C@H]21` [Compactin], the ED50 in assay [2] worked out at 3.5 mg/kg.
